# Assay results as given in ChEMBL document CHEMBL4828706, “Mechanistic Insights into the Leishmanicidal and Bactericidal Activities of Batroxicidin, a Cathelicidin-Related Peptide from a South American Viper (Bothrops atrox)” (J Nat Prod, 2021).
# The source made the active and inactive calls. The rule behind the calls is not given here. Where a SMILES comes first, the peptide text is derived from it.
# Assays:
# [1] = test system: Staphylococcus aureus; assay: Antibacterial activity against Staphylococcus aureus ATCC 29213 assessed as inhibition of bacterial growth by CLSI protocol based microdilution assay; type: functional
# [2] = test system: Lipid bilayer; assay: Induction of membrane destabilization in mammalian cell membrane mimic POPC:Chol (70:30) large unilamellar vesicle assessed as carboxyfluorescein leakage at MIC for Escherichia coli measured for 60 mins by fluorescence spectroscopy analysis
# [3] = test system: Escherichia coli; assay: Antibacterial activity against Escherichia coli ATCC 25922 assessed as inhibition of bacterial growth by CLSI protocol based microdilution assay; type: functional
# [4] = Cytotoxicity against mouse macrophage J774 cells assessed as cell growth inhibition measured after 24 hrs by Prestoblue dye based fluorescence analysis
# [5] = test system: Cell membrane; assay: Disruption of membrane integrity in Leishmania amazonensis promastigotes assessed as cell morphology deformation at 61.98 uM by Atomic force microscopy analysis; type: subcellular
# [6] = test system: Lipid bilayer; assay: Binding affinity with Biomimetic membrane dodecylphosphocholine micelles by circular dichroism analysis
# [7] = test system: Leishmania amazonensis; assay: Antileishmanial activity against Leishmania amazonensis (MHOM/BR/73/M2269) promastigotes assessed as inhibition of parasite growth measured after 24 hrs by MTT assay; type: functional, organism-based; conditions: MHOM/BR/73/M2269, 24 h
# [8] = test system: Leishmania amazonensis; assay: Antileishmanial activity in Leishmania amazonensis amastigotes infected in Balb/c mouse peritoneal macrophages assessed as reduction in infection index measured after 24 hrs by Giemsa staining based assay; type: functional, organism-based; conditions: Peritoneal macrophage
# [9] = test system: Escherichia coli; assay: Antibacterial activity against multidrug- resistant Escherichia coli assessed as inhibition of bacterial growth by CLSI protocol based microdilution assay; type: functional
# [10] = test system: Pseudomonas aeruginosa; assay: Antibacterial activity against Pseudomonas aeruginosa ATCC 27853 assessed as inhibition of bacterial growth by CLSI protocol based microdilution assay; type: functional
# [11] = test system: Staphylococcus aureus; assay: Antibacterial activity against methicillin-resistant Staphylococcus aureus assessed as inhibition of bacterial growth by CLSI protocol based microdilution assay; type: functional
# [12] = test system: Cell membrane; assay: Induction of cell membrane permeabilization in Escherichia coli ATCC 25922 assessed as cell morphology distortion by measuring modifications on bacillary structure at 0.12 uM by Atomic force microscopy analysis; type: subcellular
# [13] = test system: Cell membrane; assay: Disruption of membrane integrity in Leishmania amazonensis promastigotes assessed as cell morphology deformation by measuring wrinkled patterns at 61.98 uM by Atomic force microscopy analysis; type: subcellular
# [14] = test system: Enterococcus faecalis; assay: Antibacterial activity against Enterococcus faecalis ATCC 29212 assessed as inhibition of bacterial growth by CLSI protocol based microdilution assay; type: functional
# [15] = test system: Lipid bilayer; assay: Binding affinity with Biomimetic membrane dodecylphosphocholine micelles by NMR analysis
# [16] = test system: Pseudomonas aeruginosa; assay: Antibacterial activity against multidrug-resistant Pseudomonas aeruginosa assessed as inhibition of bacterial growth by CLSI protocol based microdilution assay; type: functional
# [17] = Cytotoxicity against human HaCat cells assessed as cell growth inhibition measured after 48 hrs by MTT assay; type: cell-based
# [18] = test system: Lipid bilayer; assay: Induction of membrane destabilization in bacterial cell membrane mimic POPC:POPG (80:20) large unilamellar vesicle assessed as carboxyfluorescein leakage at MIC for Escherichia coli measured for 60 mins by fluorescence spectroscopy analysis
# [19] = test system: Escherichia coli; assay: Antibacterial activity against Escherichia coli ATCC 2101123 assessed as inhibition of bacterial growth incubated for 18 hrs by CLSI protocol based microdilution assay; type: functional
# [20] = test system: Leishmania amazonensis; assay: Antileishmanial activity in Leishmania amazonensis amastigotes infected in Balb/c mouse peritoneal macrophages assessed as average parasitic charge per macrophage at 0.70 uM measured after 24 hrs by Giemsa staining based assay; type: functional; conditions: dose 0.7 µM
# [21] = test system: Cell membrane; assay: Induction of cell membrane permeabilization in Escherichia coli ATCC 25922 assessed as cell morphology distortion by measuring alterations in cell shape at 0.47 uM by Atomic force microscopy analysis; type: subcellular
# [22] = test system: Cell membrane; assay: Induction of cell membrane permeabilization in Escherichia coli ATCC 25922 assessed as cell morphology distortion by measuring circular depressions along the bacterial surface at 0.47 uM by Atomic force microscopy analysis; type: subcellular
# [23] = test system: Escherichia coli; assay: Antibacterial activity against Escherichia coli ATCC 1812446 assessed as inhibition of bacterial growth incubated for 18 hrs by CLSI protocol based microdilution assay; type: functional
# [24] = test system: Leishmania amazonensis; assay: Antileishmanial activity in Leishmania amazonensis amastigotes infected in Balb/c mouse peritoneal macrophages assessed as average parasitic charge per macrophage at 1 uM measured after 24 hrs by Giemsa staining based assay; type: functional
# [25] = test system: Cell membrane; assay: Induction of cell membrane permeabilization in Escherichia coli ATCC 25922 assessed as cell morphology distortion by measuring modifications on bacillary structure at 0.23 uM by Atomic force microscopy analysis; type: subcellular
# [26] = test system: Cell membrane; assay: Disruption of membrane integrity in Leishmania amazonensis promastigotes assessed as cell morphology deformation by measuring wrinkled patterns at 59.81 uM by Atomic force microscopy analysis; type: subcellular
# [27] = test system: Cell membrane; assay: Disruption of membrane integrity in Leishmania amazonensis promastigotes at EC50 to 2 x EC50 measured after 24 hrs by SYTOX green staining based fluorescence assay; type: subcellular
# [28] = test system: Cell membrane; assay: Disruption of membrane integrity in Leishmania amazonensis promastigotes assessed as cell morphology deformation at 59.81 uM by Atomic force microscopy analysis; type: subcellular
# [29] = test system: Escherichia coli; assay: Antibacterial activity against Escherichia coli ATCC 25922 assessed as inhibition of bacterial growth incubated for 18 hrs by CLSI protocol based microdilution assay; type: functional
# [30] = test system: Pseudomonas aeruginosa; assay: Antibacterial activity against Pseudomonas aeruginosa ATCC 27853 assessed as inhibition of bacterial growth incubated for 18 hrs by CLSI protocol based microdilution assay; type: functional
Structure (SMILES),MIC [1],Activity [2],MIC [3],CC50 at 24 h [4],Activity [6],EC50 [7],Activity [8],MIC [9],MIC [10],MIC [11],MIC [14],Activity [15],MIC [16],CC50 at 48 h [17],Activity [18],MIC [19],MIC [23],also measured
CC[C@H](C)[C@H](NC(=O)[C@@H](NC(=O)[C@H](CCCNC(=N)N)NC(=O)[C@@H]1CCCN1C(=O)[C@H](CCCCN)NC(=O)[C@H](CCCNC(=N)N)NC(=O)[C@H](Cc1ccccc1)NC(=O)[C@H](Cc1ccccc1)NC(=O)[C@H](Cc1ccccc1)NC(=O)[C@H](CCCCN)NC(=O)[C@@H](NC(=O)[C@H](CCCNC(=N)N)NC(=O)[C@H](CCCCN)NC(=O)[C@H](CCCCN)NC(=O)[C@@H](NC(=O)[C@H](CO)NC(=O)[C@H](CC(N)=O)NC(=O)[C@H](CCCCN)NC(=O)[C@H](CC(C)C)NC(=O)[C@H](CCCCN)NC(=O)[C@H](CCCCN)NC(=O)[C@H](Cc1ccccc1)NC(=O)[C@H](Cc1ccccc1)NC(=O)[C@H](CCCCN)NC(=O)[C@H](CCCCN)NC(=O)[C@H](Cc1ccccc1)NC(=O)[C@H](CCCNC(=N)N)NC(=O)[C@@H](N)CCCCN)C(C)C)C(C)C)C(C)C)C(=O)NCC(=O)N[C@H](C(=O)N[C@H](C(=O)N[C@@H](Cc1ccccc1)C(=O)N1CCC[C@H]1C(N)=O)[C@@H](C)O)C(C)C (H-KRFKKFFKKLKNSVKKRVKFFFRKPRVIGVTFP-NH2),3.87 µM,30%,0.48 µM,3.51 µM,Active,8.86 µM,Dose-Dependent Effect,0.48 µM,0.97 µM,1.94 µM,7.75 µM,Active,0.94 µM,34.1 µM,35%,,,Activity [5]: Active; Activity [12]: Active; Activity [13]: Active
CC[C@H](C)[C@H](NC(=O)[C@@H](NC(=O)[C@H](CCCNC(=N)N)NC(=O)[C@@H]1CCCN1C(=O)[C@H](CCCCN)NC(=O)[C@H](CCCNC(=N)N)NC(=O)[C@H](Cc1ccccc1)NC(=O)[C@H](Cc1ccccc1)NC(=O)[C@H](CCCCN)NC(=O)[C@H](CCCCN)NC(=O)[C@@H](NC(=O)[C@H](CCCNC(=N)N)NC(=O)[C@H](CCCCN)NC(=O)[C@H](CCCCN)NC(=O)[C@@H](NC(=O)[C@H](CO)NC(=O)[C@H](CC(N)=O)NC(=O)[C@H](CCCCN)NC(=O)[C@H](CC(C)C)NC(=O)[C@H](CCCCN)NC(=O)[C@H](CCCCN)NC(=O)[C@H](Cc1ccccc1)NC(=O)[C@H](Cc1ccccc1)NC(=O)[C@H](CCCCN)NC(=O)[C@H](CCCCN)NC(=O)[C@H](Cc1ccccc1)NC(=O)[C@H](CCCNC(=N)N)NC(=O)[C@@H](N)CCCCN)C(C)C)C(C)C)C(C)C)C(=O)NCC(=O)N[C@H](C(=O)N[C@H](C(=O)N[C@@H](Cc1ccccc1)C(=O)N1CCC[C@H]1C(=O)N[C@@H](Cc1ccccc1)C(N)=O)[C@@H](C)O)C(C)C (H-KRFKKFFKKLKNSVKKRVKKFFRKPRVIGVTFPF-NH2),7.51 µM,35%,0.48 µM,1.6 µM,Active,4.9 µM,Dose-Dependent Effect,0.94 µM,0.94 µM,7.51 µM,7.51 µM,Active,0.94 µM,21.7 µM,50%,8 µM,8 µM,Activity [20]: 1.96; Activity [21]: inactive; Activity [22]: Active
C[C@@H]1[C@H](O)[C@@H](C)/C=C/C=C/C=C/C=C/C=C/C=C/C=C/[C@H](O[C@@H]2O[C@H](C)[C@@H](O)[C@H](N)[C@@H]2O)C[C@@H]2O[C@](O)(C[C@@H](O)C[C@@H](O)[C@H](O)CC[C@@H](O)C[C@@H](O)CC(=O)O[C@H]1C)C[C@H](O)[C@H]2C(=O)O [AMPHOTERICIN B],,,,,,0.024 µM,,,,,,,,,,,,Ratio [24]: 5.07
CC[C@H](C)[C@H](NC(=O)[C@@H](NC(=O)[C@H](CCCNC(=N)N)NC(=O)[C@@H]1CCCN1C(=O)[C@H](CCCCN)NC(=O)[C@H](CCCNC(=N)N)NC(=O)[C@H](Cc1ccccc1)NC(=O)[C@H](Cc1ccccc1)NC(=O)[C@H](Cc1ccccc1)NC(=O)[C@H](CCCCN)NC(=O)[C@@H](NC(=O)[C@H](CCCNC(=N)N)NC(=O)[C@H](CCCCN)NC(=O)[C@H](CCCCN)NC(=O)[C@@H](NC(=O)[C@H](CO)NC(=O)[C@H](CC(N)=O)NC(=O)[C@H](CCCCN)NC(=O)[C@H](CC(C)C)NC(=O)[C@H](CCCCN)NC(=O)[C@H](CCCCN)NC(=O)[C@H](Cc1ccccc1)NC(=O)[C@H](Cc1ccccc1)NC(=O)[C@H](CCCCN)NC(=O)[C@H](CCCCN)NC(=O)[C@H](Cc1ccccc1)NC(=O)[C@H](CCCNC(=N)N)NC(=O)[C@@H](N)CCCCN)C(C)C)C(C)C)C(C)C)C(=O)NCC(=O)N[C@H](C(=O)N[C@H](C(=O)N[C@@H](Cc1ccccc1)C(=O)N1CCC[C@H]1C(=O)N[C@@H](Cc1ccccc1)C(N)=O)[C@@H](C)O)C(C)C (H-KRFKKFFKKLKNSVKKRVKFFFRKPRVIGVTFPF-NH2),3.74 µM,60%,0.93 µM,2.14 µM,Active,6.74 µM,Dose-Dependent Effect,0.94 µM,1.87 µM,1.87 µM,7.48 µM,Active,4 µM,29.4 µM,60%,,,Activity [25]: Active; Activity [26]: Active; Activity [27]: Active; Activity [28]: Active
C[C@H]1C(=O)O[C@@H]2CCN3CC=C(COC(=O)[C@](C)(O)[C@]1(C)O)[C@H]23 [MONOCROTALINE],,,,,,,,,,,,,,,,4 µM,16 µM,MIC [29]: 0.78 µM; MIC [30]: 1.56 µM
